Results as given in ChEMBL document CHEMBL5212743, “Selectivity Literature for EUbOPEN Chemogenomics Library wave 3” (2023).
Blank lines part the entries; values can stand above or below the molecule they belong to.

Assays:
[1] = target: Adenosine receptor A2a (Homo sapiens) (UniProt P29274); assay: Selectivity interaction (Enzyme panel (kinases, GPCRs, HDACs, phosphatases)) EUB0000329a ADORA2A; settings: at 10 µM
[2] = target: T1, Gamma-aminobutyric acid receptor subunit alpha-1 (Homo sapiens) (UniProt P14867); assay: Selectivity interaction (GPCR panel (PDSP screen)) EUB0000329a GABRA1; settings: at 10 µM
T1 sequence (whole entry): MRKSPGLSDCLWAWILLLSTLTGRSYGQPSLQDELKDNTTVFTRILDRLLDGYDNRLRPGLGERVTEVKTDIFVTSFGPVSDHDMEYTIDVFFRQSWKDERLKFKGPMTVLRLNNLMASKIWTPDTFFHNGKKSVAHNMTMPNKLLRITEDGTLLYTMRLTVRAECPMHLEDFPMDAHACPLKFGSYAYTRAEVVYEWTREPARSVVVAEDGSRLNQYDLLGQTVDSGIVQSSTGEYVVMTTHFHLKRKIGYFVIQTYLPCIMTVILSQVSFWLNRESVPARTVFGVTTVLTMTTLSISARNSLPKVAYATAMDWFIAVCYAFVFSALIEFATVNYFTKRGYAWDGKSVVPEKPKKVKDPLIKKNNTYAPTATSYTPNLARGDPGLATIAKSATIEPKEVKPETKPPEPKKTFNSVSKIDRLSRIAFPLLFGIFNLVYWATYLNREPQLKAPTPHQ

[3] = target: Ribosomal protein S6 kinase alpha-6 (Homo sapiens) (UniProt Q9UK32); assay: Selectivity interaction (KinomeScan (DiscoverX)) EUB0000132b RPS6KA6; settings: at 1 µM
[4] = target: Myosin light chain kinase family member 4 (Homo sapiens) (UniProt Q86YV6); assay: Selectivity interaction (KinomeScan (DiscoverX)) EUB0000132b MYLK4; settings: at 1 µM
Chain of Myosin light chain kinase family member 4 (Homo sapiens) (Q86YV6 whole entry, the tested form may be a part): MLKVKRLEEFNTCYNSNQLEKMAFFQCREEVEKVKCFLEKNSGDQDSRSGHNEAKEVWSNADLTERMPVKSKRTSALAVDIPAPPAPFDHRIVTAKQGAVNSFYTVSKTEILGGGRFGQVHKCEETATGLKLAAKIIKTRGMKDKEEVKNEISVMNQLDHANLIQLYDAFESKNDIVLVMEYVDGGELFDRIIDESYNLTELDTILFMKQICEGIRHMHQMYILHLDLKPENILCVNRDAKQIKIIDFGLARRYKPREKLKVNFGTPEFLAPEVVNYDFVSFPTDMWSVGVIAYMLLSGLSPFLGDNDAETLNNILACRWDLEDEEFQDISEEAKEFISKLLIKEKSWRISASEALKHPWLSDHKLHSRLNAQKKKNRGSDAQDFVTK

[5] = target: Discoidin domain-containing receptor 2 (Homo sapiens) (UniProt Q16832); assay: Selectivity interaction (KinomeScan (DiscoverX)) EUB0000132b DDR2; settings: at 1 µM
[6] = test system: Mast/stem cell growth factor receptor Kit (Homo sapiens), P10721 [V559D]; assay: (§1) Selectivity interaction (KinomeScan (DiscoverX)) EUB0000132b KIT; settings: at 1 µM
[7] = target: Mast/stem cell growth factor receptor Kit (Homo sapiens, UniProt P10721); assay: as §1; settings: at 1 µM
[8] = target: Mitogen-activated protein kinase kinase kinase 20 (Homo sapiens) (UniProt Q9NYL2); assay: Selectivity interaction (KinomeScan (DiscoverX)) EUB0000132b MAP3K20; settings: at 1 µM
Chain of Mitogen-activated protein kinase kinase kinase 20 (Homo sapiens) (Q9NYL2 2-800 limits assumed): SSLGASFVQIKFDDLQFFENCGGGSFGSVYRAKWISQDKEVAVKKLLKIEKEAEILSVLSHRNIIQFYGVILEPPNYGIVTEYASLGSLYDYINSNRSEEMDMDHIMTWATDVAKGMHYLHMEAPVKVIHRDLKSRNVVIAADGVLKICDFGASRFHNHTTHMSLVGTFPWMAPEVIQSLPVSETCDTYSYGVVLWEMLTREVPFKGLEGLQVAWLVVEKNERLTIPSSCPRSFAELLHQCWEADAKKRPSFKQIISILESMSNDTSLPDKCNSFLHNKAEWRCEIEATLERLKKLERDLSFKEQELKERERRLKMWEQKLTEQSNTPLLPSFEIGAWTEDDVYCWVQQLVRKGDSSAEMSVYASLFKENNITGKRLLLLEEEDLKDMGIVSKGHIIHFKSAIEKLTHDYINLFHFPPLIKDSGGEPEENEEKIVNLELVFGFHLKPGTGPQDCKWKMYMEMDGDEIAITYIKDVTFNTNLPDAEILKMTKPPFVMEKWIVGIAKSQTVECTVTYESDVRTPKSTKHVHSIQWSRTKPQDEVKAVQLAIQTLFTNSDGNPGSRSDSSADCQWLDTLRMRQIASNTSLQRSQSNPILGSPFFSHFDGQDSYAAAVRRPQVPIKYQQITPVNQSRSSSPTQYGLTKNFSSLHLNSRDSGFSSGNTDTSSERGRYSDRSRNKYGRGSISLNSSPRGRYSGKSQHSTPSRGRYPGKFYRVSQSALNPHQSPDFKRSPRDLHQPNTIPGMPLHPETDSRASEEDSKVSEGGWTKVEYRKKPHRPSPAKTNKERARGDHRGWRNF

[9] = target: Epithelial discoidin domain-containing receptor 1 (Homo sapiens, UniProt Q08345); settings: at 1 µM
Chain of Epithelial discoidin domain-containing receptor 1 (Q08345 whole entry, the tested form may be a part): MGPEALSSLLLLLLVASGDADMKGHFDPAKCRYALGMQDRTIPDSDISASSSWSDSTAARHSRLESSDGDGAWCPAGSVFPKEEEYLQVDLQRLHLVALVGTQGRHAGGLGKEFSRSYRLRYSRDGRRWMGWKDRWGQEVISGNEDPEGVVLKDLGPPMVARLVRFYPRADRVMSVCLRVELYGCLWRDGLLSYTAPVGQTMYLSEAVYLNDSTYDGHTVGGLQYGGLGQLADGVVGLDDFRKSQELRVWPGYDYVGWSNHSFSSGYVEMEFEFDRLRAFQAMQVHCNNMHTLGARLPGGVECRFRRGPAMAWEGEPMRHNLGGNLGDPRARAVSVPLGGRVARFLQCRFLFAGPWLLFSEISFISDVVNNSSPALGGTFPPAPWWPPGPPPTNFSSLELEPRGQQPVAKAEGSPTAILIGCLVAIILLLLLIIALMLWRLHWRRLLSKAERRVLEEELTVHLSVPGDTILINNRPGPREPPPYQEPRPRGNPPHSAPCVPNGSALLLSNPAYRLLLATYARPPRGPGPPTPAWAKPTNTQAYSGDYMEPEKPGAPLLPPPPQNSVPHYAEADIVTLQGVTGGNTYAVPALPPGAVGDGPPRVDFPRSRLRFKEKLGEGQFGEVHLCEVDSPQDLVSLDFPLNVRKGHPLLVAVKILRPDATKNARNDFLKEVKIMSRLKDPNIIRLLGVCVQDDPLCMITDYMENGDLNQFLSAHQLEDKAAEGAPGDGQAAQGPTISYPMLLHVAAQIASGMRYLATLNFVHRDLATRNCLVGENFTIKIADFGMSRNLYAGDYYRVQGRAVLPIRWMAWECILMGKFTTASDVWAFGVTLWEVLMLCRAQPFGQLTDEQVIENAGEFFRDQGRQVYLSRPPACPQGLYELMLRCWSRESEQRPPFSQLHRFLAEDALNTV

[10] = target: T2, Alpha-1A adrenergic receptor (Homo sapiens) (UniProt P35348); assay: (§2) Selectivity interaction (GPCR panel (PDSP screen)) EUB0000300bCl ADRA1A; settings: at 10 µM
T2 sequence (whole entry): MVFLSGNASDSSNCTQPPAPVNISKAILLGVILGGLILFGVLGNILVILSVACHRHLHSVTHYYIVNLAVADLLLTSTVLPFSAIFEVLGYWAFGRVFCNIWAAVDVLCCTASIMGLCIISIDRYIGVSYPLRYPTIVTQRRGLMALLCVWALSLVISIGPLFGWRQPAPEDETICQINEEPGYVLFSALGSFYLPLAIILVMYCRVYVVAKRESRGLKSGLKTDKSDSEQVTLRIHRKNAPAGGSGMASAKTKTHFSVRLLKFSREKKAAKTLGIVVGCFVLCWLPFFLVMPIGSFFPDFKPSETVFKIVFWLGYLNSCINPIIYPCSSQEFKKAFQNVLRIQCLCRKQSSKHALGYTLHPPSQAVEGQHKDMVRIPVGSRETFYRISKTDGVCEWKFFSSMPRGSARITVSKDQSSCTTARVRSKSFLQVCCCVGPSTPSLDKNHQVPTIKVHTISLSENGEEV

[11] = target: T3, Alpha-1A adrenergic receptor (Homo sapiens, UniProt P35348); assay: as §2
T3 sequence (P35348 whole entry): T2 sequence (whole entry)

[12] = target: T4, Alpha-1B adrenergic receptor (Homo sapiens, UniProt P35368); assay: Selectivity interaction (GPCR panel (PDSP screen)) EUB0000300bCl ADRA1B
T4 sequence (P35368 whole entry): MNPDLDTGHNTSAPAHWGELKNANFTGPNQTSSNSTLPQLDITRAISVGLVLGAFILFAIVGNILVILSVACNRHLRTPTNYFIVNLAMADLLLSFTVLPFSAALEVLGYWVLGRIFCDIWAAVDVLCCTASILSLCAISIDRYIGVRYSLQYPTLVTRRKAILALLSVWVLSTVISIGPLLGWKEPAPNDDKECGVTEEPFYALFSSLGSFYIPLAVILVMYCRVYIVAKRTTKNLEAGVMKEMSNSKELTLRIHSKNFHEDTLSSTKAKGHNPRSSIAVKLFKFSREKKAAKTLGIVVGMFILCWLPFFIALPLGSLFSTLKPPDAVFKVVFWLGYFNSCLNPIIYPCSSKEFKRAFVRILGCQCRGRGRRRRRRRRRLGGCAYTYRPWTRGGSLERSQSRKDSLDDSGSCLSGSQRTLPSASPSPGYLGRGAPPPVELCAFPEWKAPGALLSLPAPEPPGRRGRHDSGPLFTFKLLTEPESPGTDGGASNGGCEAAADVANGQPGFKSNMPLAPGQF

[13] = target: T5, Alpha-2B adrenergic receptor (Homo sapiens) (UniProt P18089); assay: Selectivity interaction (GPCR panel (PDSP screen)) EUB0000300bCl ADRA2B; settings: at 10 µM
T5 sequence (whole entry): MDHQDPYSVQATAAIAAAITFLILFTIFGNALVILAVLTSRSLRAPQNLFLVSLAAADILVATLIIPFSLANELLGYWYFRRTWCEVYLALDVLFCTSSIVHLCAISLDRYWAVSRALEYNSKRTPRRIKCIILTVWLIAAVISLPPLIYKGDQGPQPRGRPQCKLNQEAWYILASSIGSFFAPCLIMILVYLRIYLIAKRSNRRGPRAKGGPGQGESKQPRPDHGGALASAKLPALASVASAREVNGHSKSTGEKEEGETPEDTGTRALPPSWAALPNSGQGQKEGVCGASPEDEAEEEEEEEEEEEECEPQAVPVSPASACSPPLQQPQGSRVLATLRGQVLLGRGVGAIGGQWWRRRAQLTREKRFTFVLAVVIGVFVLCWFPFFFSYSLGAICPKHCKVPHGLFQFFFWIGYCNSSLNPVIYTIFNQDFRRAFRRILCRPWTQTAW

[14] = target: Mitogen-activated protein kinase 6 (Homo sapiens) (UniProt Q16659); assay: Selectivity interaction (KinomeScan (DiscoverX)) EUB0000300bCl MAPK6; settings: at 1 µM
[15] = target: Tyrosine-protein kinase receptor TYRO3 (Homo sapiens) (UniProt Q06418); assay: Selectivity interaction (KinomeScan (DiscoverX)) EUB0000300bCl TYRO3; settings: at 1 µM
[16] = target: Serine/threonine-protein kinase 33 (Homo sapiens, UniProt Q9BYT3); assay: Selectivity interaction (Kinase panel (International centre for protein kinase profiling)) EUB0000627a STK33; settings: at 1 µM
Chain of Serine/threonine-protein kinase 33 (Q9BYT3 whole entry, looked up): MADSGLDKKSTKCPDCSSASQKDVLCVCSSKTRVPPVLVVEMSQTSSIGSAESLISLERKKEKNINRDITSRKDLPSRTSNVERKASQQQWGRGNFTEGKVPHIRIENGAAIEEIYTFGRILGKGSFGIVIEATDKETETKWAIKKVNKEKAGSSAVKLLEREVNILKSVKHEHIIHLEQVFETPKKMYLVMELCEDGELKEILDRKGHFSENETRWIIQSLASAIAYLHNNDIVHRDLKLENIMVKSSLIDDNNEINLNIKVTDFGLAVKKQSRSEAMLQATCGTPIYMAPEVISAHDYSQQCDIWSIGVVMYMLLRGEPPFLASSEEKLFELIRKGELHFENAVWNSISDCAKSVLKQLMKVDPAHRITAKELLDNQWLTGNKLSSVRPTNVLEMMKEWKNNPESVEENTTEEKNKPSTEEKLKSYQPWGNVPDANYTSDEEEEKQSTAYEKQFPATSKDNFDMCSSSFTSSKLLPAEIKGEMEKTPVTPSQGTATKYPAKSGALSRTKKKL

[17] = target: T6, Serine/threonine-protein kinase ULK2 (Homo sapiens) (UniProt Q8IYT8); assay: Selectivity interaction (Kinase panel (International centre for protein kinase profiling)) EUB0000627a ULK2; settings: at 1 µM
T6 sequence (whole entry): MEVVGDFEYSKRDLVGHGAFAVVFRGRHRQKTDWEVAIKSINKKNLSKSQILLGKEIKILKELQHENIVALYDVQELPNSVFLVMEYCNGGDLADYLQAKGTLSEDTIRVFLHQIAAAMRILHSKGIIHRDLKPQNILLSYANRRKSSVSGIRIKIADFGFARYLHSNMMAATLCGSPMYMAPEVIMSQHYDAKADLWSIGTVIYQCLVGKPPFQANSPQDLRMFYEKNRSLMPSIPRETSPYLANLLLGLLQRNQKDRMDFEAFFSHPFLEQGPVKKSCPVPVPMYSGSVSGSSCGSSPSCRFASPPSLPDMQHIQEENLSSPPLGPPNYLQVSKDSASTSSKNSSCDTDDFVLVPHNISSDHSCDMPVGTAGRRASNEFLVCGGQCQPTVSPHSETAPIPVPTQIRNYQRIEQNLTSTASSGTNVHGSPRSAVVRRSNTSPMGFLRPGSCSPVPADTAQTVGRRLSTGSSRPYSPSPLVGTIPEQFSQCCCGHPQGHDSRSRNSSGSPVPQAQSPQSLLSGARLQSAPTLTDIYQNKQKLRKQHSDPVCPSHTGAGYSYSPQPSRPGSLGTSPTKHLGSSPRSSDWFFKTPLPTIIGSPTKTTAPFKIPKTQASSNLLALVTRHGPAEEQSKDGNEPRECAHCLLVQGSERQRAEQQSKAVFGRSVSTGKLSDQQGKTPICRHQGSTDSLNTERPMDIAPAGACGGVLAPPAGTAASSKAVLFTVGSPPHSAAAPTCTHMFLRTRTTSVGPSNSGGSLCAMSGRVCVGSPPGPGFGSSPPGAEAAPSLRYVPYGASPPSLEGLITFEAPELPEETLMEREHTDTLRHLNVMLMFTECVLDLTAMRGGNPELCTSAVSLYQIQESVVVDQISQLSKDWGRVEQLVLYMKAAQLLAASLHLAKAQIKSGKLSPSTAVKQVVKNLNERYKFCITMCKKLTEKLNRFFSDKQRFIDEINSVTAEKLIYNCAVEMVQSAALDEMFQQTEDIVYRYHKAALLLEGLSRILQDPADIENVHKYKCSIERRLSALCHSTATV

[18] = target: Protein-tyrosine kinase 6 (Homo sapiens) (UniProt Q13882); settings: at 1 µM
[19] = target: Phosphatidylinositol 4,5-bisphosphate 3-kinase catalytic subunit alpha isoform (Homo sapiens, UniProt P42336); settings: at 1 µM
Chain of Phosphatidylinositol 4,5-bisphosphate 3-kinase catalytic subunit alpha isoform (P42336 whole entry, canonical isoform): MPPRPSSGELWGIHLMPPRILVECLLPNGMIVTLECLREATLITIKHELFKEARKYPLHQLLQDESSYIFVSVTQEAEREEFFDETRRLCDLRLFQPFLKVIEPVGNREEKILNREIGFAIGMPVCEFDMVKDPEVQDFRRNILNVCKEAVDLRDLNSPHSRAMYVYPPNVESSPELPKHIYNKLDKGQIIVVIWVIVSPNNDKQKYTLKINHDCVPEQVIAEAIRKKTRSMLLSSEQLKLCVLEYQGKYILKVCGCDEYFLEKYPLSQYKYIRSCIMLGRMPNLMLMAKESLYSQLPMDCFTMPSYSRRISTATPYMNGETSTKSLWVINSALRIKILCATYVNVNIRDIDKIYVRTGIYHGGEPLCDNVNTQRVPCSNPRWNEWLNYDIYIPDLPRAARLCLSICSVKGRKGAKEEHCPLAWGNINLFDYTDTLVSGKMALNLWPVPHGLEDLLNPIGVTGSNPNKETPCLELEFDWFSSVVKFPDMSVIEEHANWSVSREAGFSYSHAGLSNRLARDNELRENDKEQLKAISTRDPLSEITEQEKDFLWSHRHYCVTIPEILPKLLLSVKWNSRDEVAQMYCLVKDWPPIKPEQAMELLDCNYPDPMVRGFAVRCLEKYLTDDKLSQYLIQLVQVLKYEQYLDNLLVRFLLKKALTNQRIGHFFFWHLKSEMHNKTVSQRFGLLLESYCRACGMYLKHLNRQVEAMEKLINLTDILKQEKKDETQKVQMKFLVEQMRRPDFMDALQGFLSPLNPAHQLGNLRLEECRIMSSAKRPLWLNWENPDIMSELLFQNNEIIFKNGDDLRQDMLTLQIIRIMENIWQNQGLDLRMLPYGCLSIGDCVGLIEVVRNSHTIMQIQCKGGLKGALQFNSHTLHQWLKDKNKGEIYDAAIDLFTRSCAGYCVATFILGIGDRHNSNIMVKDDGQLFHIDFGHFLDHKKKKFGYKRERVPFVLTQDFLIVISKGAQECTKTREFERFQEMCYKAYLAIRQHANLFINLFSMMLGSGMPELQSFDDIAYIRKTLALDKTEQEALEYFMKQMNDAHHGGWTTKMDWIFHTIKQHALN

[20] = target: T7, Phosphatidylinositol 4,5-bisphosphate 3-kinase catalytic subunit delta isoform (Homo sapiens) (UniProt O00329); settings: at 1 µM
T7 sequence (whole entry): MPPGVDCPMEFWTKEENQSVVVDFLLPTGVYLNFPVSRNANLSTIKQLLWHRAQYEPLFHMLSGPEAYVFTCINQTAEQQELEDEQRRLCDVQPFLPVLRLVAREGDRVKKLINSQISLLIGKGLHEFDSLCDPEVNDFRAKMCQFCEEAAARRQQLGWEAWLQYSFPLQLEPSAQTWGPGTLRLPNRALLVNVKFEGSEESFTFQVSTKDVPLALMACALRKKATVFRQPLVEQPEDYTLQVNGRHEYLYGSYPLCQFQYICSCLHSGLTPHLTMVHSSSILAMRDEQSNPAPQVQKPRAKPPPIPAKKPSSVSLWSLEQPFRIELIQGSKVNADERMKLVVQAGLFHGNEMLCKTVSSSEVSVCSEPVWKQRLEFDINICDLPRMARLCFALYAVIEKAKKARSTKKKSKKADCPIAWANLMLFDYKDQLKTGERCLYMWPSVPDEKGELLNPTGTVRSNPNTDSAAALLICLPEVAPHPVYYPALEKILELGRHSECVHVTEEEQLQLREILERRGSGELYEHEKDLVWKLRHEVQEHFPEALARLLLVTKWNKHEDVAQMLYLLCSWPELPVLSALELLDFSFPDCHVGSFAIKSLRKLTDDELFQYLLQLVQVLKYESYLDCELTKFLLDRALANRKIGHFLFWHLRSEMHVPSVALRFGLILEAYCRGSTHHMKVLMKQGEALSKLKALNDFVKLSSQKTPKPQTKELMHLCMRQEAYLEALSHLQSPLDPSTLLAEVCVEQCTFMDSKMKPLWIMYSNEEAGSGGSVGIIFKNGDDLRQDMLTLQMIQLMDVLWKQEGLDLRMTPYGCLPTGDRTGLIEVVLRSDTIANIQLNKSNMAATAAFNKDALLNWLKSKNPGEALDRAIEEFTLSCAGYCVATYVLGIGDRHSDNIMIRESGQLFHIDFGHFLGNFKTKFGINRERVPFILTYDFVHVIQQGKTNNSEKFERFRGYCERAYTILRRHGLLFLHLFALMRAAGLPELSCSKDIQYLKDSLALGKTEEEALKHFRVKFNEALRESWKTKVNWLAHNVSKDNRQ

[21] = target: Serine/threonine-protein kinase Nek1 (Homo sapiens) (UniProt Q96PY6); assay: Selectivity interaction (KinomeScan (DiscoverX)) EUB0000711a NEK1; settings: at 100 nM
Chain of Serine/threonine-protein kinase Nek1 (Homo sapiens) (Q96PY6 whole entry): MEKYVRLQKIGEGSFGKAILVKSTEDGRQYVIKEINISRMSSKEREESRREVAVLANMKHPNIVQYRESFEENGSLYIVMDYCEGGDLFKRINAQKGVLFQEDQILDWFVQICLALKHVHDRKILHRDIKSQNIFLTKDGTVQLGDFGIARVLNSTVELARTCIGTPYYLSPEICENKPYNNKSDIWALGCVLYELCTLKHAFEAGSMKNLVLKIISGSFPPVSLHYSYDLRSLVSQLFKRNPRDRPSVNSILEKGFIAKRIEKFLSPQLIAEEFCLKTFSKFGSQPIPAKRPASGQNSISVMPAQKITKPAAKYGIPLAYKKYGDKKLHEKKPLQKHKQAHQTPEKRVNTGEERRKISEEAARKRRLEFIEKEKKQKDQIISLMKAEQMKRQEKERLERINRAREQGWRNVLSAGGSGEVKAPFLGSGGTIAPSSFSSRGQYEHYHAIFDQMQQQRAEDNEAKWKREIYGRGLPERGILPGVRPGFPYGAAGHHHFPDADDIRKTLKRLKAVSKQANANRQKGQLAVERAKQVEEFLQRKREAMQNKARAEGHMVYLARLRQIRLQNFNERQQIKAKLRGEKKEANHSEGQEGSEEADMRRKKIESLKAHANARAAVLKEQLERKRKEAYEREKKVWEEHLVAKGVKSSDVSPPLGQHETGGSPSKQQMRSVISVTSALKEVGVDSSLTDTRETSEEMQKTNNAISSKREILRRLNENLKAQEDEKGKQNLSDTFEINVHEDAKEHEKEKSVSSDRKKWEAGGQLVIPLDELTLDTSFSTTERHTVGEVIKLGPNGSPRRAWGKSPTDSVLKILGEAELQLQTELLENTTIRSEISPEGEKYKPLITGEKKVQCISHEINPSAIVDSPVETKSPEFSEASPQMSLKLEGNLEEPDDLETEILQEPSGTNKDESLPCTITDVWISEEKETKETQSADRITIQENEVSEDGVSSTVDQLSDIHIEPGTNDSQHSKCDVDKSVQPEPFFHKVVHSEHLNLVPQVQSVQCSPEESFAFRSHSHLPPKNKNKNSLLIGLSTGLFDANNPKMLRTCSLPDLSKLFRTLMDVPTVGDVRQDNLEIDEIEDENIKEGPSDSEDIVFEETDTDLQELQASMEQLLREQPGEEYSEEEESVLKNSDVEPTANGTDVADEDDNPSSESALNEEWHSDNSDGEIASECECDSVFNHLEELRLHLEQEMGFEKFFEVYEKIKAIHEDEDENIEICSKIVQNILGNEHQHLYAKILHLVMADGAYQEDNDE

[22] = target: Leucine-rich repeat serine/threonine-protein kinase 2 (Homo sapiens, UniProt Q5S007); assay: Selectivity interaction (KinomeScan (DiscoverX)) EUB0000711a LRRK2; settings: at 100 nM
[23] = target: Serine/threonine-protein kinase 38-like (Homo sapiens, UniProt Q9Y2H1); assay: Selectivity interaction (KinomeScan (DiscoverX)) EUB0000711a STK38L; settings: at 100 nM
[24] = target: Calcium/calmodulin-dependent protein kinase type IV (Homo sapiens) (UniProt Q16566); assay: Selectivity interaction (Kinase panel) EUB0000209b CAMK4; settings: at 10 µM
[25] = target: Protein arginine N-methyltransferase 3 (Homo sapiens, UniProt O60678); assay: Selectivity interaction (HMT panel) EUB0000209b PRMT3; settings: at 1 µM

SMILES: O=C(NNS(=O)(=O)c1ccccc1F)c1cc(F)cc(-c2ccccn2)c1
% of inhibition [1]: 49%
% of inhibition [2]: 75.7%

SMILES: C=CC(=O)N1CCC([C@@H]2CCNc3c(C(N)=O)c(-c4ccc(Oc5ccccc5)cc4)nn32)CC1
% of inhibition [18]: 99%

SMILES: Cc1nc(-c2cn3c(n2)-c2ccc(-c4cnn(C(C)(C)C(N)=O)c4)cc2OCC3)n(C(C)C)n1
% of control [19]: 98.6%
% of control [20]: 97.9%

Results, then the molecule that gave them:

% of control [3]: 29%
% of control [4]: 31%
% of control [5]: 31%
% of control [6]: 3%
% of control [7]: 7.7%
% of control [8]: 8.8%
% of control [9]: 3%
SMILES: Nc1c(C(=O)NCc2ccc(C(=O)NCCCC3CCCCC3)cc2)cnn1-c1ccccc1

% of inhibition [10]: 84%
Ki [11]: > 2700 nM
Ki [12]: > 1200 nM
% of inhibition [13]: 80%
% of control [14]: 0%
% of control [15]: 33%
SMILES: C[C@@H](c1cccc(CN)c1)n1cc(Cl)cc(C(N)=O)c1=N

% of kinase activity [16]: 33%
% of kinase activity [17]: 37%
SMILES: CCC(=O)Nc1cccc(Oc2nc(Nc3ccc(N4CCN(C)CC4)cc3OC)ncc2Cl)c1

% of control [21]: 58%
% of control [22]: 57%
% of control [23]: 20%
SMILES: O=C(NCCCC1CCCCC1)c1ccc(CNC(=O)c2cnn(-c3ccccc3)c2C(F)(F)F)cc1

% of inhibition [24]: 20%
% activity remaining [25]: > 70%
SMILES: CCCc1cc(C)[nH]c(=O)c1CNC(=O)c1cc(-c2ccc(N3CCN(C(C)C)CC3)nc2)cc2c1cnn2C(C)C
